Key:
EGFR (WT) = EGFR (WT) (Homo sapiens (Human), UniProt P00533); test: Potency of EGFR enzymatic activity inhibition (WT) (ADP-Glo luminescence); format: biochemical; settings: recombinant EGFR (WT) 4 nM, Poly(Glu, Tyr) substrate, ATP, 1 h at rt
Description: Example D. Primary Assay Used to Determine Potency of EGFR enzymatic activity Inhibition (WT)
Compound activity was determined using recombinant EGFR protein (SignalChem, #E10-112G-10) and Poly(Glu, Tyr) substrate (Sigma-Aldrich, #P0275) in an in vitro enzymatic reaction. The enzymatic assay used to determine activity was a Luminescence assay using a Microplate Reader ClarioStar Plus. The enzymatic reaction was carried out in assay buffer (40 mM TRIS-HCl pH 7.4-7.6, 20 mM MgCl2, 2.5 mM MnCl2, 0.05 mM DTT, 0.1 mg/ml BSA). The compounds were dispensed on a 384 well Diamond Well Plate (Axigen, Cat #P-384-120SQ-C—S) using the Biomek FX liquid handling system at 80× solutions of compounds in DMSO. 2× Protein-Substrate mix (final concentration 4 nM of EGFR and 50 ng/μl of Poly(Glu, Tyr)) was prepared in 1× Assay buffer and 4 μl of mixture per well was added into 384w white Reaction plate with NBS (Coming, Cat #4513). 4 μl of Poly(Glu, Tyr) substrate w/o EGFR in 1× buffer was used for negative control. Plates were centrifuged for 1 min at 200 g. Next step the Compounds were added to Reaction plate using Biomek station via following steps: 1 μl of 80× compounds (in DMSO) were mixed thoroughly with 39 μl of 2× 10 μM ATP in Assay Buffer, then 4 μl of this mixture was added to Reaction plate with 4 μl of Protein-Substrate mix. Plates were centrifuged for 1 min at 200 g and incubated for 1 h at rt. Next 4 μL of ADP-Glo reagent (Promega, ADP-Glo™ Kinase Assay, Cat #V9102) per well was added. Plates were incubated for 30 min at rt. Then 8 μL of Kinase detection reagent (Promega, ADP-Glo™ Kinase Assay, Cat #V9102) per well was added and the Luminescence was measured using Microplate Reader. The % inhibition was then used to calculate the EC50 values. The results for certain compounds are presented in the Table D. The values of EC50 shown as a letters A-E, where: A<0.001 μM; 0.001 μM<B<0.005 μM; 0.005 μM<C<

Ba/F3 (A767_dupASV) = test: Cellular growth inhibition assay (CellTiter-Glo), Ba/F3 (A767_dupASV); format: cell-based; settings: Mus musculus, BaF3, 72 h; 3 days of incubation; read-out: Ba/F3 (A767_dup ASV) CC50
Description: (§1) Example E. Cellular Growth Inhibition Assay
(§2) Ba/F3(Empty vector) (Signosis), Ba/F3(Wild type) (Signosis), Ba/F3(L^858R+T790M) (Signosis), Ba/F3(A767_dupASV) (Signosis), Ba/F3(D770_N771insSVD) (Signosis), Ba/F3(H773_V774insNPH) (Signosis) were seeded at a density of 4000 cells per well in a CellBIND® 384-well Flat Clear Bottom Black Polystyrene Microplates (Coming, USA, Cat #3770) in 45 μl total volume of RPMI (PanEco, Cat #C330, Russia) with […] (HyClone, Cat #SV30160.03) and with 10 ng/ml rmIL-3 (RD systems, USA, Cat #403-ML-025) (for BaBF3(Empty vector)) and with 10 ng/ml rhEGF (ThermoFisher, USA, Cat #PHG0311L) (for BaCF3(Wild type)). 500× compounds solutions in DMSO (Sigma Cat #D2650) were prepared into Cmpnds plate (DiamondWell Plate, Axigen, Cat #P-384-120SQ-C—S) and DMSO only control was included. 1.l of 500× compounds (Cmpnds plate) was added to 49 µl of culture medium into Dilution plate (Diamond Well Plate, Axigen, Cat #P-384-120SQ-C—S), mixed and then 5 μl of 10× compounds solutions were transferred to cells followed by centrifugation at 100 g for 1 min. Final DMSO concentration was 0.2% o. After 3 days of incubation 10.l of CellTiter-Glo (Promega, CAT #G7572) were added to the cells, plate was centrifuged at 100 g for 1 min and luminescence signal was measured using Microplate Reader (CLARIOStar).

[1] = Cellular growth inhibition assay (CellTiter-Glo), Ba/F3 (Empty vector); format: cell-based; settings: mouse, Ba/F3 cells with empty vector; Ba/F3 (Empty vector) with 10 ng/ml rmIL-3, 3 days of incubation
Description: as §1, §2

Ba/F3 (L858R + T790M) = test: Cellular growth inhibition assay (CellTiter-Glo), Ba/F3 (L858R+T790M); format: cell-based; settings: Mus musculus, BaF3, 72 h; 3 days of incubation
Description: as §1, §2

Ba/F3 (H773_V774insSVD) = test: Cellular growth inhibition assay (CellTiter-Glo), Ba/F3 (H773_V774insSVD); format: cell-based; settings: Mus musculus, BaF3, 72 h; 3 days of incubation; read-out: Ba/F3 (H773_V774 insSVD) CC50
Ba/F3 (D770_N771insSVD) = test: Cellular growth inhibition assay (CellTiter-Glo), Ba/F3 (D770_N771insSVD); format: cell-based; settings: Mus musculus, BaF3, 72 h; 3 days of incubation; read-out: Ba/F3 (D770_N771 insSVD) CC50
Description: as §1, §2

EGFR (D770_N771insNPG) = EGFR (D770_N771insNPG) (Homo sapiens (Human), UniProt P00533, INS770NPG); test: Potency of EGFR (D770_N771insNPG) enzymatic activity inhibition (ADP-Glo luminescence); format: biochemical; settings: recombinant EGFR (D770_N771insNPG) 1.5 nM, Poly(Glu, Tyr) substrate, ATP, 1 h at rt
Sequence of EGFR (D770_N771insNPG) (P00533 other isoform, or with tags, fused parts or gaps del 1-694/ins NPG behind 770 limits assumed): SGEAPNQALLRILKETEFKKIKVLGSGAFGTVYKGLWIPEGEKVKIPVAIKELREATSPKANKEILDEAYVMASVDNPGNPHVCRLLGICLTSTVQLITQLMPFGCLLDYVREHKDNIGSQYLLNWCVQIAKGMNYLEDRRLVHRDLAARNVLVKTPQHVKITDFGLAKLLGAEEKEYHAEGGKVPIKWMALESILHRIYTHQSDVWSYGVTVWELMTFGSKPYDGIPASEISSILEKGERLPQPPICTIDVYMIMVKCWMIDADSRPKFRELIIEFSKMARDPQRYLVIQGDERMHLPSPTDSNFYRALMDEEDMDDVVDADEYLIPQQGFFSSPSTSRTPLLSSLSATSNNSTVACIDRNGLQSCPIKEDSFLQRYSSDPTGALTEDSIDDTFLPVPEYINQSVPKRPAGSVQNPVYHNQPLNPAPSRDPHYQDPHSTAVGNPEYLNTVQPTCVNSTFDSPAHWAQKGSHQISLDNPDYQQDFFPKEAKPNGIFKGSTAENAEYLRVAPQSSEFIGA
Description: Example B. Primary Assay Used to Determine Potency of EGFR (D770_N771insNPG) Enzymatic Activity Inhibition
Compounds activity was determined using recombinant EGFR (D770 N771insNPG) protein (SignalChem, #E10-132GG-10) and Poly(Glu, Tyr) substrate (Sigma-Aldrich, #P0275) in an in vitro enzymatic reaction. The enzymatic assay used to determine activity was a Luminescence assay using a Microplate Reader ClarioStar Plus. The enzymatic reaction was carried out in assay buffer (40 mM TRIS-HCl pH 7.4-7.6, 20 mM MgCl2, 2.5 mM MnCl2, 0.05 mM DTT, 0.1 mg/ml BSA). The compounds were dispensed on a 384 well Diamond Well Plate (Axigen, Cat #P-384-120SQ-C—S) using the Biomek FX liquid handling system at 80× solutions of compounds in DMSO. 2× Protein-Substrate mix (final concentration 1.5 nM of EGFR (D770_N771insNPG) and 50 ng/μl of Poly(Glu, Tyr)) was prepared in 1× Assay buffer and 4 µl of mixture per well was added into 384w white Reaction plate with NBS (Coming, Cat #4513). 4 μl of Poly(Glu, Tyr) substrate w/o EGFR in 1× buffer was used for negative control. Plates were centrifuged for 1 min at 200 g. Next step the Compounds were added to Reaction plate using Biomek station via following steps: 1 μl of 80× compounds (in DMSO) were mixed thoroughly with 39 μl of 2× 10 μM ATP in Assay Buffer, then 4 μl of this mixture was added to Reaction plate with 4 μl of Protein-Substrate mix. Plates were centrifuged for 1 min at 200 g and incubated for 1 h at rt. Next 4 μL of ADP-Glo reagent (Promega, ADP-Glo™ Kinase Assay, Cat #V9102) per well was added. Plates were incubated for 30 min at rt. Then 8 μL of Kinase detection reagent (Promega, ADP-Glo™ Kinase Assay, Cat #V9102) per well was added and the Luminescence was measured using Microplate Reader. The % inhibition was then used to calculate the EC50 values. The values of EC50 shown as a letters A-E, where: A<0.001 μM; 0.001 μM<B<0.005 μM; 0.005 μM<C<0.01 μM; 0.01<D<0.05 μM; E>0.05.

Ba/F3 (EGFRwt) = test: Cellular growth inhibition assay (CellTiter-Glo), Ba/F3 (EGFRwt); format: cell-based; settings: Mus musculus, BaF3, 72 h; Ba/F3 (Wild type) with 10 ng/ml rhEGF, 3 days of incubation
Description: as §1, §2

Sequence of EGFR (WT) (P00533 25-1210): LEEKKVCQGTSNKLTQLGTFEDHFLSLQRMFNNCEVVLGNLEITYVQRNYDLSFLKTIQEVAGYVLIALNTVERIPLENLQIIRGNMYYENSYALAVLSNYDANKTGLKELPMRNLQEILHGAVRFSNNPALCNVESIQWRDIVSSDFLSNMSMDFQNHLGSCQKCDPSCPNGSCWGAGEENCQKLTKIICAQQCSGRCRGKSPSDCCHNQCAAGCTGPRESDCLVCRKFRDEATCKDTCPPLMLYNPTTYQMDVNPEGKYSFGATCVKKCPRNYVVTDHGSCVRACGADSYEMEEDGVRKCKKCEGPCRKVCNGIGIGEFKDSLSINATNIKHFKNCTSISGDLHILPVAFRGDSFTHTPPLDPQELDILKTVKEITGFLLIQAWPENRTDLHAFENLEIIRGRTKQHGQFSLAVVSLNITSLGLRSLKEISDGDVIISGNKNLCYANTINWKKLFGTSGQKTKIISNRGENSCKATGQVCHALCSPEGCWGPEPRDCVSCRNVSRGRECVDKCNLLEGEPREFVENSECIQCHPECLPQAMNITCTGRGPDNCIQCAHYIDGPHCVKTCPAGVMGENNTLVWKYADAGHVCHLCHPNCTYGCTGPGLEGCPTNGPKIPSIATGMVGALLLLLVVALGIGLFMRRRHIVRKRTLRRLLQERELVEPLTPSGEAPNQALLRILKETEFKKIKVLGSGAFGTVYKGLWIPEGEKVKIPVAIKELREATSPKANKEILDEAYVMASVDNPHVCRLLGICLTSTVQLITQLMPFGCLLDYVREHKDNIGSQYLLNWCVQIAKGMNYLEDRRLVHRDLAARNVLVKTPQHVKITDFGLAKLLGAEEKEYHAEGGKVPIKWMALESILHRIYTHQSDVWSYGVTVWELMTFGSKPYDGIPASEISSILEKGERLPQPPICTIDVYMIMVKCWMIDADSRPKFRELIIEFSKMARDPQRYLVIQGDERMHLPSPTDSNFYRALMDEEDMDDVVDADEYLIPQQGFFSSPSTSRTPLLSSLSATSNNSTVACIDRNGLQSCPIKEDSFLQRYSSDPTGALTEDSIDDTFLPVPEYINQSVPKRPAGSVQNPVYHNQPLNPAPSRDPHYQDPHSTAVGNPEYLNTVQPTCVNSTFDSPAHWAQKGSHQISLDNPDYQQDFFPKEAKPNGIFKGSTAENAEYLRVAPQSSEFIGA

Row | Compound | EC50 (EGFR (WT)) | CC50 (Ba/F3 (A767_dupASV)) | CC50 at 3 days [1] | CC50 (Ba/F3 (L858R + T790M)) | CC50 (Ba/F3 (H773_V774insSVD)) | CC50 (Ba/F3 (D770_N771insSVD)) | EC50 (EGFR (D770_N771insNPG)) | CC50 (Ba/F3 (EGFRwt))
1 | COc1c(F)cccc1Nc1c2[nH]c3c1C(=O)NCC3C/C=C/COCCOc1cnccc1-2 (centres unmarked) [Compound 99, (13E)-23-[(3-Fluoro-2-methoxyphenyl)amino]-8,11-dioxa-5,18,22-tniazatetracyclo[18.2.1.0^2,7.0^16′2]tricosa-1(23),2,4,6,13,20-hexaen-19-one] | 1 to 5 nM | 1 to 10 nM | > 10000 nM | 100 to 1000 nM | 100 to 1000 nM | 10 to 100 nM | 1 to 5 nM | 10 to 100 nM
2 | COc1c(F)cccc1Nc1c2[nH]c3c1C(=O)NCC3CCCCOCCOc1cnccc1-2 (centres unmarked) [Compound 100, 23-[(3-Fluoro-2-methoxyphenyl)amino]-8,11-dioxa-5,18,22-triazatetracyclo[18.2.1.0^2,7.0^16,21]tricosa-1(23),2,4,6,20-pentaen-19-one] | ≤ 1 nM | 1 to 10 nM | > 10000 nM | 100 to 1000 nM | 10 to 100 nM | 10 to 100 nM | 1 to 5 nM | 10 to 100 nM
3 | COc1c(F)cccc1Nc1c2[nH]c3c1C(=O)NCC3C/C=C\COCCOc1cnccc1-2 (centres unmarked) [Compound 104, (13Z)-23-[(3-fluoro-2-methoxyphenyl)amino]-8,11-dioxa-5,18,22-triazatetracyclo[18.2.10^2,7.0^16,21]tricosa-1(23),2,4,6,13,20-hexaen-19-one] | 1 to 5 nM | 0.1 to 1 nM | > 10000 nM | 100 to 1000 nM | 100 to 1000 nM | 10 to 100 nM | ≤ 1 nM | 100 to 1000 nM
4 | COc1c(F)cccc1Nc1c2[nH]c3c1C(=O)NC[C@H]3CCCCOCCOc1cnccc1-2 [Compound 114, (16R)-23-[(3-Fluoro-2-methoxyphenyl)amino]-8,11-dioxa-5,18,22-triazatetracyclo[18.2.1.0^2,7.0^16,21]tricosa-1(23),2,4,6,20-pentaen-19-one] | 1 to 5 nM | 0.1 to 1 nM | > 10000 nM | 100 to 1000 nM | 100 to 1000 nM | 10 to 100 nM | 1 to 5 nM | 100 to 1000 nM
